Experimental data from ChEMBL document CHEMBL4483862, “Open-source discovery of chemical leads for next-generation chemoprotective antimalarials” (2018).

Test system: Plasmodium berghei
Assay: Luciferase/luciferin-expressing antifolate-resistant parasites were used to infect a culture of HepG2 cells that were pre-incubated with compounds. Infected hepatocytes emit light due to the luciferase reaction. Assay results are presented as the percent inhibition of light emission compared to control. […]
Assay type: functional
Details: sporozoite; for IC90: read-out: LUCIFERASE INFECTION ASSAY - IC90

SMILES	IC90 [µM]	also measured
O=C(CN1CCCc2ccccc21)NC(=O)NCc1ccccc1	7.44	IC50 (PBLUC_HILL_SLOPE 112, PBLUC_R_SQUARED 0.458, read-out: LUCIFERASE INFECTION ASSAY - IC50): 7.29 µM
COc1ccccc1N(Cc1ccccc1)S(=O)(=O)c1cccc(C(=O)NC2CC(C)(C)NC(C)(C)C2)c1	9.9	IC50 (PBLUC_HILL_SLOPE 145, PBLUC_R_SQUARED 0.235, read-out: LUCIFERASE INFECTION ASSAY - IC50): 9.75 µM
NC(CCc1ccccc1)c1csc(Nc2ccc(C(F)(F)F)cn2)n1 (stereo not given)	4.5	IC50 (PBLUC_HILL_SLOPE 84.8, PBLUC_R_SQUARED 0.093, read-out: LUCIFERASE INFECTION ASSAY - IC50): 4.38 µM
COc1ccc(CC(N)c2csc(NC(=O)Nc3ccccc3C(C)(C)C)n2)cc1 (stereo not given)	4.27	IC50 (PBLUC_HILL_SLOPE 104, PBLUC_R_SQUARED 0.386, read-out: LUCIFERASE INFECTION ASSAY - IC50): 4.18 µM
Cc1nc(-c2ccccn2)nc(N(C)Cc2ccccc2)c1Cl	3.5	IC50 (PBLUC_HILL_SLOPE 72.3, PBLUC_R_SQUARED 0.385, read-out: LUCIFERASE INFECTION ASSAY - IC50): 3.4 µM
C=C(c1c[nH]c2ccccc12)c1c[nH]c2ccccc12	> 10	IC50 (PBLUC_HILL_SLOPE 132, PBLUC_R_SQUARED 0.705, read-out: LUCIFERASE INFECTION ASSAY - IC50): 9.85 µM
c1ccc(-c2cn3nc(NCC(c4cccs4)N4CCOCC4)sc3n2)cc1 (stereo not given)	6.67	IC50 (PBLUC_HILL_SLOPE 82.8, PBLUC_R_SQUARED 0.111, read-out: LUCIFERASE INFECTION ASSAY - IC50): 6.5 µM
CCCn1c(N)c(C(=O)CN(C)Cc2cccc(Cl)c2Cl)c(=O)[nH]c1=O	3.38	IC50 (PBLUC_HILL_SLOPE 149, PBLUC_R_SQUARED 0.302, read-out: LUCIFERASE INFECTION ASSAY - IC50): 3.33 µM
COc1ccc(C(N)c2csc(NC(=O)NC(c3ccccc3)c3ccccc3)n2)cc1 (stereo not given)	3.36	IC50 (PBLUC_HILL_SLOPE 167, PBLUC_R_SQUARED 0.12, read-out: LUCIFERASE INFECTION ASSAY - IC50): 3.31 µM
CC(C)c1ccc(/C=C2\CCc3c2nc2ccccc2c3C(=O)O)cc1	0.0263	IC50 (PBLUC_HILL_SLOPE 81.7, PBLUC_R_SQUARED 0.0337, read-out: LUCIFERASE INFECTION ASSAY - IC50): 0.0256 µM
CNc1snc(C)c1C(=O)OCCCOC(=O)c1c(C)nsc1NC	6.67	IC50 (PBLUC_HILL_SLOPE 109, PBLUC_R_SQUARED 0.523, read-out: LUCIFERASE INFECTION ASSAY - IC50): 6.54 µM
CNC(=O)c1ccc(CN(C(=O)/C=C/c2ccc(-c3ccccc3F)s2)C2CC2)cc1	6.45	IC50 (PBLUC_HILL_SLOPE 95.6, PBLUC_R_SQUARED 0.262, read-out: LUCIFERASE INFECTION ASSAY - IC50): 6.3 µM
C[C@H](Nc1ccc(C(F)(F)F)cc1[N+](=O)[O-])C(=O)Nc1nc2ccccc2[nH]1	6.29	IC50 (PBLUC_HILL_SLOPE 74.9, PBLUC_R_SQUARED 0.587, read-out: LUCIFERASE INFECTION ASSAY - IC50): 6.11 µM
O=C(/C=C/c1cnn(Cc2ccccc2)c1)N1CCN(Cc2ccc(Cl)cc2)CC1	6.97	IC50 (PBLUC_HILL_SLOPE 126, PBLUC_R_SQUARED 0.0794, read-out: LUCIFERASE INFECTION ASSAY - IC50): 6.85 µM
CCCCCCn1c(SCc2cc(=O)oc3cc(C)ccc23)nnc1-c1c[nH]c2ccccc12	> 10	IC50 (PBLUC_HILL_SLOPE 85.8, PBLUC_R_SQUARED 0.0287, read-out: LUCIFERASE INFECTION ASSAY - IC50): 9.99 µM
CC(Oc1ccc(C(=O)NCc2ccnc(N(C)C)c2)cn1)c1ccccc1 (stereo not given)	6.11	IC50 (PBLUC_HILL_SLOPE 81.7, PBLUC_R_SQUARED 0.538, read-out: LUCIFERASE INFECTION ASSAY - IC50): 5.95 µM
c1ccc(Sc2ncnc3sccc23)nc1	6.79	IC50 (PBLUC_HILL_SLOPE 117, PBLUC_R_SQUARED 0.0329, read-out: LUCIFERASE INFECTION ASSAY - IC50): 6.66 µM
CN(CC(=O)Nc1c(Cl)cccc1Cl)C(=O)c1cccc(Oc2cccc(C(F)(F)F)c2)c1	6.4	IC50 (PBLUC_HILL_SLOPE 97.2, PBLUC_R_SQUARED 0.277, read-out: LUCIFERASE INFECTION ASSAY - IC50): 6.26 µM
Cc1c(CN2CCN(c3ccccn3)CC2)noc1-c1ccc(F)cc1	3.45	IC50 (PBLUC_HILL_SLOPE 83.7, PBLUC_R_SQUARED 0.475, read-out: LUCIFERASE INFECTION ASSAY - IC50): 3.36 µM
NC(=O)C(C(=O)/C=C/c1ccc(Cl)cc1)=C1SCS1	4.75	IC50 (PBLUC_HILL_SLOPE 78.5, PBLUC_R_SQUARED 0.479, read-out: LUCIFERASE INFECTION ASSAY - IC50): 4.62 µM

SMILES	IC90 [µM]	also measured
CCOc1cc(/C=C(/C(=O)c2ccc(Br)cc2)c2nc3ccccc3[nH]2)ccc1O	4.59	IC50 (PBLUC_HILL_SLOPE 158, PBLUC_R_SQUARED 0.0148, read-out: LUCIFERASE INFECTION ASSAY - IC50): 4.53 µM
CCOc1ccc(/C=C(/C(=O)NCc2ccc(F)cc2)c2nc3ccccc3[nH]2)cc1	5.81	IC50 (PBLUC_HILL_SLOPE 89.9, PBLUC_R_SQUARED 0.419, read-out: LUCIFERASE INFECTION ASSAY - IC50): 5.67 µM
CCCCc1ccc(N(C(=O)Nc2ccc(Cl)cc2)C2=NC(CC)CS2)cc1 (stereo not given)	> 10	IC50 (PBLUC_HILL_SLOPE 93.6, PBLUC_R_SQUARED 0.111, read-out: LUCIFERASE INFECTION ASSAY - IC50): 9.99 µM
O=C(NCCC1=CCCCC1)Nc1ccc(OC(F)(F)F)cc1	> 10.1	IC50 (PBLUC_HILL_SLOPE 77.5, PBLUC_R_SQUARED 0.175, read-out: LUCIFERASE INFECTION ASSAY - IC50): > 10.1 µM
O=C(NCCC(=O)N1CCc2sccc2C1c1ccccc1)c1ccsc1 (stereo not given)	5.51	IC50 (PBLUC_HILL_SLOPE 101, PBLUC_R_SQUARED 0.289, read-out: LUCIFERASE INFECTION ASSAY - IC50): 5.39 µM
CCn1nnc2cc(C(=O)Nc3cc(C(F)(F)F)ccc3N(C)C)ccc21	7.74	IC50 (PBLUC_HILL_SLOPE 154, PBLUC_R_SQUARED 0.344, read-out: LUCIFERASE INFECTION ASSAY - IC50): 7.63 µM
CN(Cc1ccc(C(=O)NC2CC2)cc1)c1ncccc1[N+](=O)[O-]	6.56	IC50 (PBLUC_HILL_SLOPE 96.1, PBLUC_R_SQUARED 0.262, read-out: LUCIFERASE INFECTION ASSAY - IC50): 6.41 µM
COc1ccc(/C=C2\N=C(SCC(=O)O)N(Cc3ccccc3)C2=O)cc1	0.545	IC50 (PBLUC_HILL_SLOPE 72.9, PBLUC_R_SQUARED 0.433, read-out: LUCIFERASE INFECTION ASSAY - IC50): 0.529 µM
CS(=O)(=O)NC1CCN(c2nc(-c3ccccn3)nc3sc(-c4ccccc4)cc23)CC1	3.42	IC50 (PBLUC_HILL_SLOPE 90.2, PBLUC_R_SQUARED 0.429, read-out: LUCIFERASE INFECTION ASSAY - IC50): 3.34 µM
CCn1c(NC(=O)Cc2c(Cl)cccc2Cl)nc2ccccc21	6.27	IC50 (PBLUC_HILL_SLOPE 118, PBLUC_R_SQUARED 0.0721, read-out: LUCIFERASE INFECTION ASSAY - IC50): 6.16 µM
Cc1cccc(Nc2ccccc2C(=O)OCC(=O)N2CCNC2=O)c1C	7.08	IC50 (PBLUC_HILL_SLOPE 113, PBLUC_R_SQUARED 0.339, read-out: LUCIFERASE INFECTION ASSAY - IC50): 6.94 µM
COC(=O)c1occc1CSc1nc2ccc(Br)cc2c(=O)n1-c1ccccc1	> 10	IC50 (PBLUC_HILL_SLOPE 130, PBLUC_R_SQUARED 0.0623, read-out: LUCIFERASE INFECTION ASSAY - IC50): 10 µM
CCCn1c(N)c(C(=O)CNc2ccccc2N2CCCCCC2)c(=O)n(C)c1=O	5.69	IC50 (PBLUC_HILL_SLOPE 99.9, PBLUC_R_SQUARED 0.404, read-out: LUCIFERASE INFECTION ASSAY - IC50): 5.56 µM
O=C(NNC(=O)c1nn(-c2ccccc2)cc1O)c1ccc2c(c1)OCO2	6.28	IC50 (PBLUC_HILL_SLOPE 71.1, PBLUC_R_SQUARED 0.59, read-out: LUCIFERASE INFECTION ASSAY - IC50): 6.09 µM
NC(Cc1ccccc1)c1csc(Nc2ccc(-c3ccccc3)nn2)n1 (stereo not given)	5.82	IC50 (PBLUC_HILL_SLOPE 170, PBLUC_R_SQUARED 0.669, read-out: LUCIFERASE INFECTION ASSAY - IC50): 5.74 µM
NC(=O)c1ccc(-c2cc(-c3cccc(C(F)(F)F)c3)cnc2N)cc1	5.02	IC50 (PBLUC_HILL_SLOPE 80.6, PBLUC_R_SQUARED 0.104, read-out: LUCIFERASE INFECTION ASSAY - IC50): 4.88 µM
Cc1ccc(C(C)C)cc1OCC(=O)N1CCC(C(=O)Nc2ccccc2O)CC1	4.58	IC50 (PBLUC_HILL_SLOPE 135, PBLUC_R_SQUARED 0.614, read-out: LUCIFERASE INFECTION ASSAY - IC50): 4.51 µM
NC(Cc1ccc(F)cc1)c1csc(NC(=O)c2ccc(F)c(Cl)c2)n1 (stereo not given)	5.68	IC50 (PBLUC_HILL_SLOPE 84.1, PBLUC_R_SQUARED 0.0637, read-out: LUCIFERASE INFECTION ASSAY - IC50): 5.54 µM
COc1cc(C(=O)Nc2ccc(Cn3cncn3)cc2)ccc1Oc1ccc(Cl)cc1[N+](=O)[O-]	6.19	IC50 (PBLUC_HILL_SLOPE 72.9, PBLUC_R_SQUARED 0.579, read-out: LUCIFERASE INFECTION ASSAY - IC50): 6.01 µM
CC(Sc1nc(-c2ccccc2)c(-c2ccccc2)o1)C(=O)NC1CC1 (stereo not given)	5.53	IC50 (PBLUC_HILL_SLOPE 75.9, PBLUC_R_SQUARED 0.255, read-out: LUCIFERASE INFECTION ASSAY - IC50): 5.37 µM
